Laboratory results taken from patent publication US4746728A, “8-glycine, des-19-leucine-calcitonin” (Armour Pharmaceutical Company, priority 1986, dated 1988).
Positions of bridges follow the written chain, without caps; N, C: chain ends. Residues, ends and D or L forms follow the SMILES beside them. No end group written: not given here.

Legend:
[1] = system: serum calcium concentration
Description: Biological Assay Of Calcitonin Analogs In Vivo
Rats were divided into four groups of seven animals, and each group was assigned at random to a dose of standard or test solution. Low and high doses were chosen from the linear portion of the dose-response curve. For the salmon calcitonin standard, the values were 0.7 and 2.1 ng. peptide/100 g. body weight (BW). This dose approximates 3 and 9 MU/100 g. […] Peptides were given by subcutaneous injection (0.2 ml/100 g. BW) and blood was withdrawn 1 hour later for serum calcium determination. Sera are processed and analyzed within two hours of collection. Results were analyzed within two hours of collection.

[2] = literature values, Monikawa et al.; cited from earlier work

For CC(C)C[C@H](NC(=O)CNC(=O)[C@@H]1CSSC[C@H](N)C(=O)N[C@@H](CO)C(=O)N[C@@H](CC(N)=O)C(=O)N[C@@H](CC(C)C)C(=O)N[C@@H](CO)C(=O)N[C@@H]([C@@H](C)O)C(=O)N1)C(=O)NCC(=O)N[C@@H](CCCCN)C(=O)N[C@@H](CC(C)C)C(=O)N[C@@H](CO)C(=O)N[C@@H](CCC(N)=O)C(=O)N[C@@H](CCC(=O)O)C(=O)N[C@@H](CC(C)C)C(=O)N[C@@H](Cc1c[nH]cn1)C(=O)N[C@@H](CCCCN)C(=O)N[C@@H](CCC(N)=O)C(=O)N[C@H](C(=O)N[C@@H](Cc1ccc(O)cc1)C(=O)N1CCC[C@H]1C(=O)N[C@@H](CCCNC(=N)N)C(=O)N[C@H](C(=O)N[C@@H](CC(N)=O)C(=O)N[C@H](C(=O)NCC(=O)N[C@@H](CO)C(=O)NCC(=O)N[C@H](C(=O)N1CCC[C@H]1C(N)=O)[C@@H](C)O)[C@@H](C)O)[C@@H](C)O)[C@@H](C)O [Gly^8, des-Leu^19 -SCT, 8-glycine, des-19-leucine-salmon calcitonin] (H-CSNLSTCGLGKLSQELHKQTYPRTNTGSGTP-NH2; disulfide 1-7), the biological potency ([1]; rat, in vivo, sc) was 11,400 IU/mg.

In the case of CC(C)C[C@H](NC(=O)[C@H](CCCCN)NC(=O)CNC(=O)[C@H](CC(C)C)NC(=O)[C@@H](NC(=O)[C@@H]1CSSC[C@H](N)C(=O)N[C@@H](CO)C(=O)N[C@@H](CC(N)=O)C(=O)N[C@@H](CC(C)C)C(=O)N[C@@H](CO)C(=O)N[C@@H]([C@@H](C)O)C(=O)N1)C(C)C)C(=O)N[C@@H](CO)C(=O)N[C@@H](CCC(N)=O)C(=O)N[C@@H](CCC(=O)O)C(=O)N[C@@H](CC(C)C)C(=O)N[C@@H](Cc1c[nH]cn1)C(=O)N[C@@H](CCCCN)C(=O)N[C@@H](CC(C)C)C(=O)N[C@@H](CCC(N)=O)C(=O)N[C@H](C(=O)N[C@@H](Cc1ccc(O)cc1)C(=O)N1CCC[C@H]1C(=O)N[C@@H](CCCNC(=N)N)C(=O)N[C@H](C(=O)N[C@@H](CC(N)=O)C(=O)N[C@H](C(=O)NCC(=O)N[C@@H](CO)C(=O)NCC(=O)N[C@H](C(=O)N1CCC[C@H]1C(N)=O)[C@@H](C)O)[C@@H](C)O)[C@@H](C)O)[C@@H](C)O [salmon calcitonin, Salmon calcitonin], the “potency of the standard salmon calcitonin used” value ([1]; independently determined content of the standard) is reported as “greater than 4,000 IU/mg”.

In the case of “eel calcitonin (CSNLSTCVLGKLSQELHKLQTYPRTDVGAGTP; ends and bridges not checked; cysteine pairing not given here; UniProt P01262 1-32, looked up) [synthetic eel calcitonin, natural 32-amino-acid calcitonin peptide]”, the hypocalcemic potency [2] is given as “around 4300 IU/mg”.
